Assay results taken from paper PMC9276671, “A first-in-human Phase I dose-escalation trial of the novel therapeutic peptide, ALM201, demonstrates a favourable safety profile in unselected patients with ovarian cancer and other advanced solid tumours” (British Journal of Cancer, 2022).
No end group written: not given here.

Experiment: Plasma pharmacokinetics of ALM201 in Phase I patients (validated LC-MS/MS, Phoenix WinNonlin)
Conditions: human, plasma, sc; for Tmax: median; for Tmax / AUC(0-t) / Cmax: plasma LC-MS/MS; for AUC(0-t): AUC0-t; for AUC(0-t) / Cmax: Gmean (CV)
[1] = 300 mg, 300 mg SC, day 1 cycle 1, n = 3
[2] = 300 mg, 300 mg SC, day 3 cycle 1, n = 3
[3] = 300 mg, 300 mg SC, day 18 cycle 2, n = 3
[4] = 300 mg, 300 mg SC, day 18 cycle 4, n = 1
[5] = 300 mg, 300 mg SC, day 18 cycle 6, n = 1

With IRQQPRDPPTETLELEVSPDPAS [ALM201] the level at 6 h (200 mg, Plasma concentration, geometric mean (CV%), 200 mg SC, day 1 cycle 1, 6 h after dosing, n = 4, LC-MS/MS) was 518 ng/mL, the level at 0.5 h (200 mg, Plasma concentration, geometric mean (CV%), 200 mg SC, day 3 cycle 1, 0.5 h after dosing, n = 4, LC-MS/MS) was 1090 ng/mL and the level at 1 h (200 mg, Plasma concentration, geometric mean (CV%), 200 mg SC, day 3 cycle 1, 1 h after dosing, n = 3, LC-MS/MS) was 1410 ng/mL. The level at 1.5 h (200 mg, Plasma concentration, geometric mean (CV%), 200 mg SC, day 3 cycle 1, 1.5 h after dosing, n = 4, LC-MS/MS) was 1320 ng/mL, the level at 2 h (200 mg, Plasma concentration, geometric mean (CV%), 200 mg SC, day 3 cycle 1, 2 h after dosing, n = 4, LC-MS/MS) was 1540 ng/mL and the level at 3.5 h (200 mg, Plasma concentration, geometric mean (CV%), 200 mg SC, day 3 cycle 1, 3.5 h after dosing, n = 4, LC-MS/MS) was 1250 ng/mL. It also gave a level at 5 h (200 mg, Plasma concentration, geometric mean (CV%), 200 mg SC, day 3 cycle 1, 5 h after dosing, n = 4, LC-MS/MS) of 958 ng/mL, a level at 0.5 h (200 mg, Plasma concentration, geometric mean (CV%), 200 mg SC, day 18 cycle 1, 0.5 h after dosing, n = 3, LC-MS/MS) of 811 ng/mL and a level at 1 h (200 mg, Plasma concentration, geometric mean (CV%), 200 mg SC, day 18 cycle 1, 1 h after dosing, n = 3, LC-MS/MS) of 1260 ng/mL. For the same sequence, the level at 1.5 h (200 mg, Plasma concentration, geometric mean (CV%), 200 mg SC, day 18 cycle 1, 1.5 h after dosing, n = 2 values (CV NC), LC-MS/MS) was 1670 ng/mL, the level at 2 h (200 mg, Plasma concentration, geometric mean (CV%), 200 mg SC, day 18 cycle 1, 2 h after dosing, n = 2 values (CV NC), LC-MS/MS) was 1580 ng/mL and the level at 3.5 h (200 mg, Plasma concentration, geometric mean (CV%), 200 mg SC, day 18 cycle 1, 3.5 h after dosing, n = 3, LC-MS/MS) was 1130 ng/mL. It also gave a level at 5 h (200 mg, Plasma concentration, geometric mean (CV%), 200 mg SC, day 18 cycle 1, 5 h after dosing, n = 3, LC-MS/MS) of 890 ng/mL, a level at 0.5 h (200 mg, Plasma concentration, geometric mean (CV%), 200 mg SC, day 18 cycle 2, 0.5 h after dosing, n = 2, LC-MS/MS) of 1210 ng/mL and a level at 1 h (200 mg, Plasma concentration, geometric mean (CV%), 200 mg SC, day 18 cycle 2, 1 h after dosing, n = 2, LC-MS/MS) of 1470 ng/mL. For the same sequence, the level at 1.5 h (200 mg, Plasma concentration, geometric mean (CV%), 200 mg SC, day 18 cycle 2, 1.5 h after dosing, n = 2, LC-MS/MS) was 1890 ng/mL, the level at 2 h (200 mg, Plasma concentration, geometric mean (CV%), 200 mg SC, day 18 cycle 2, 2 h after dosing, n = 2, LC-MS/MS) was 1360 ng/mL and the level at 3.5 h (200 mg, Plasma concentration, geometric mean (CV%), 200 mg SC, day 18 cycle 2, 3.5 h after dosing, n = 2, LC-MS/MS) was 911 ng/mL. The level at 5 h (200 mg, Plasma concentration, geometric mean (CV%), 200 mg SC, day 18 cycle 2, 5 h after dosing, n = 2, LC-MS/MS) was 690 ng/mL, the level at 0.5 h (200 mg, Plasma concentration, geometric mean (CV%), 200 mg SC, day 18 cycle 4, 0.5 h after dosing, n = 2, LC-MS/MS) was 1080 ng/mL and the level at 1 h (200 mg, Plasma concentration, geometric mean (CV%), 200 mg SC, day 18 cycle 4, 1 h after dosing, n = 2, LC-MS/MS) was 1410 ng/mL. The level at 1.5 h (200 mg, Plasma concentration, geometric mean (CV%), 200 mg SC, day 18 cycle 4, 1.5 h after dosing, n = 2, LC-MS/MS) was 1150 ng/mL, the level at 2 h (200 mg, Plasma concentration, geometric mean (CV%), 200 mg SC, day 18 cycle 4, 2 h after dosing, n = 2, LC-MS/MS) was 1500 ng/mL and the level at 3.5 h (200 mg, Plasma concentration, geometric mean (CV%), 200 mg SC, day 18 cycle 4, 3.5 h after dosing, n = 2, LC-MS/MS) was 1310 ng/mL. The level at 5 h (200 mg, Plasma concentration, geometric mean (CV%), 200 mg SC, day 18 cycle 4, 5 h after dosing, n = 2, LC-MS/MS) was 975 ng/mL, the Tmax (200 mg, 200 mg SC, day 1 cycle 1, n = 4) was 2.5 h and the Tmax (200 mg, 200 mg SC, day 3 cycle 1, n = 4) was 2 h. For the same sequence, the Tmax (200 mg, 200 mg SC, day 18 cycle 1, n = 3) was 2.03 h, the Tmax (200 mg, 200 mg SC, day 18 cycle 2, n = 2) was 1.54 h and the Tmax (200 mg, 200 mg SC, day 18 cycle 4, n = 2) was 1.57 h. The AUC(0-t) [1] was 11900 ng·h/mL, the AUC(0-t) [2] was 12500 ng·h/mL and the AUC(0-t) [3] was 10400 ng·h/mL. The AUC(0-t) [4] was 8600 ng·h/mL, the AUC(0-t) [5] was 26700 ng·h/mL and the Cmax [1] was 2550 ng/mL. It also gave a Cmax [2] of 2690 ng/mL, a Cmax (300 mg, 300 mg SC, day 18 cycle 1, n = 3) of 2880 ng/mL and a Cmax [3] of 2780 ng/mL. It also gave a Cmax [4] of 2140 ng/mL, a Cmax [5] of 6830 ng/mL and a level at 0.25 h (300 mg, Plasma concentration, geometric mean (CV%), 300 mg SC, day 1 cycle 1, 0.25 h after dosing, n = 3, LC-MS/MS) of 1050 ng/mL. The level at 0.75 h (300 mg, Plasma concentration, geometric mean (CV%), 300 mg SC, day 1 cycle 1, 0.75 h after dosing, n = 3, LC-MS/MS) was 1970 ng/mL and the level at 1.5 h (300 mg, Plasma concentration, geometric mean (CV%), 300 mg SC, day 1 cycle 1, 1.5 h after dosing, n = 3, LC-MS/MS) was 2250 ng/mL.
